This is an account of results in US20230382925A1, “MODULATORS OF CYSTIC FIBROSIS TRANSMEMBRANE CONDUCTANCE REGULATOR” (VERTEX PHARMACEUTICALS INCORPORATED, priority 2020, published 2023).

SMILES strings stand for the structures. Read-outs that look alike come from different tables or passages of the source.

In this assay the target is CFTR (Homo sapiens, UniProt P13569). Briefly: Membrane Potential Dye, Enteroid Assay B. The assay is classed as cell-based. An outline of the steps: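 Human intestinal enteroid cells exposed to compound 18-24 h at 37 °C, then loaded with methyl oxonol membrane-potential dye plus CaCC blockers. Chloride transport triggered in chloride-free buffer with 10 μM forskolin, 100 μM IBMX, 300 nM Compound III; fluorescence read 15 min, expressed as % of triple-corrector/potentiator combination control.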
CFTR, sequence (P13569 with tags, fused parts or gaps DEL508-508): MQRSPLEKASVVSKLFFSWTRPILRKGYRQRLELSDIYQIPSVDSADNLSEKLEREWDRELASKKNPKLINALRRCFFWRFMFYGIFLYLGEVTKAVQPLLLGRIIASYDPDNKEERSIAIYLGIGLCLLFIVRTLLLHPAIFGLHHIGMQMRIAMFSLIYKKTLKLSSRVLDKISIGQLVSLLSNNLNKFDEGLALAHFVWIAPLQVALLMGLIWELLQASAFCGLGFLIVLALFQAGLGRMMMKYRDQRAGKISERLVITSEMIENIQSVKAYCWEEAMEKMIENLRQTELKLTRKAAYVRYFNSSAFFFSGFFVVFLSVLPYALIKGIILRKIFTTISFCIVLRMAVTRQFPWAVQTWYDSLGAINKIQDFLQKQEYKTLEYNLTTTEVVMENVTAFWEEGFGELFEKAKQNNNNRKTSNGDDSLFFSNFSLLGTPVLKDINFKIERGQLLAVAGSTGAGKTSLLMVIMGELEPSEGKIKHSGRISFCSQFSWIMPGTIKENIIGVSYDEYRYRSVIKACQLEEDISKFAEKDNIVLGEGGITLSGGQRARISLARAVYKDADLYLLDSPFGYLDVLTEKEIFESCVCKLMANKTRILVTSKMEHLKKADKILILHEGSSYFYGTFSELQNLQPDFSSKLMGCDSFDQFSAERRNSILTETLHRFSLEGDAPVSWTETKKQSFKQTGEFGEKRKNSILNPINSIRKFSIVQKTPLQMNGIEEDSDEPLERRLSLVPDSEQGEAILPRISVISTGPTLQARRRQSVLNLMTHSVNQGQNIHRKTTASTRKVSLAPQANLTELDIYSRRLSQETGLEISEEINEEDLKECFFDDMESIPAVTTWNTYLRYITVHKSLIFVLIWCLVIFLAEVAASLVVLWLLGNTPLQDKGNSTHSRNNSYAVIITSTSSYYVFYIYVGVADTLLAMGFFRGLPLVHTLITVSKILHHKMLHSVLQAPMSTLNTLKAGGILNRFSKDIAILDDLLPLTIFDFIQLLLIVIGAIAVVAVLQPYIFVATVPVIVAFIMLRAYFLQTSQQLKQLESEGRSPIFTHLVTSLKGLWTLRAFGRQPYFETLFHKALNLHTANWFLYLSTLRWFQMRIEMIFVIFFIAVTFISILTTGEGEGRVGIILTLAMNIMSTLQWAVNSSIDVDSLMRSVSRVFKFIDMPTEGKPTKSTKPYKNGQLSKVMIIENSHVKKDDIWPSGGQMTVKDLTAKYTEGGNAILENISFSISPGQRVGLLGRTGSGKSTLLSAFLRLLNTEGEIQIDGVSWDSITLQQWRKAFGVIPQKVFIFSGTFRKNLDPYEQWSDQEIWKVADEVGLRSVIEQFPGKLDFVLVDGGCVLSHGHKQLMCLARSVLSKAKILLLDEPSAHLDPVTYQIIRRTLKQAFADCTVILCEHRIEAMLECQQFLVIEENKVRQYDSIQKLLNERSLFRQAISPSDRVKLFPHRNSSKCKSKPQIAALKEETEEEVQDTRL

[1] abbreviates: Table 10, read-out: Ent. B EC50.

The EC50 is the midpoint of the concentration-response curve. As for `COC(=O)N[C@H]1C[C@@H](N2C(=O)c3cccc(c3)S(=O)(=O)Nc3nc(cc(-c4c(C)cccc4C)n3)OC[C@H]2CC(C)C)C1` [Compound 368], the “Ent. B Max Activity (%)” value (Table 9) is “+++ (+++ is >60%)”. Also, the EC50 (Table 9, read-out: Ent. B EC50) is less than 1000 nM.

With `COC(=O)NC1CC2(C1)CC(N1C(=O)c3cccc(c3)S(=O)(=O)Nc3nc(cc(-c4c(C)cccc4C)n3)O[C@@H](C)[C@H]1C)C2` (stereo partly shown) [Compound 443], the “Ent. B Max Activity (%)” value (Table 10) is given as “++ (++ is 30-60%)”. The EC50 under setting [1] was less than 1000 nM.

For the compound `CCC(=O)NC1CC(N2C(=O)c3cccc(c3)S(=O)(=O)Nc3nc(cc(-c4c(C)cccc4C)n3)OC[C@H]2CC(C)(C)C)C1` (stereo in doubt) [Compound 447], for the setting “Table 9”, the “Ent. B Max Activity (%)” value was “+++ (+++ is >60%)”. In addition, the EC50 (Table 9, read-out: Ent. B EC50) is less than 1000 nM.

Consider `COC1CC(N2C(=O)c3cccc(c3)S(=O)(=O)Nc3nc(cc(-c4c(C)cccc4C)n3)OC[C@H]2CC2(C(F)(F)F)CC2)C1` (stereo in doubt) [Compound 465], for which the “Ent. B Max Activity (%)” value is recorded as “+++ (+++ is >60%)”. In addition, where the note is “read-out: Ent. B EC50”, the EC50 was less than 1000 nM.

As for `CCC(O)(CC)[C@H]1CC2(C[C@H](N3C(=O)c4cccc(c4)S(=O)(=O)Nc4nc(cc(-c5c(C)cccc5C)n4)OC[C@H]3CC(C)(C)C)C2)C1` (stereo partly shown) [Compound 408], the “Ent. B Max Activity (%)” value (Table 10) is “+++ (+++ is >60%)”. The EC50 under setting [1] is less than 1000 nM.

As for `Cc1cccc(C)c1-c1cc2nc(n1)NS(=O)(=O)c1cccc(c1)C(=O)N(C1CC(NC(=O)OC(C)(C)C)C1)[C@H](CC(C)(C)C(F)(F)F)CO2` (single isomer, unassigned) [Compound 194], where the note is “Table 9”, the “Ent. B Max Activity (%)” value is “+++ (+++ is >60%)”. For the same compound, the EC50 (Table 9, read-out: Ent. B EC50) is less than 1000 nM.

For the compound `[H][C@]1(N2C(=O)c3cccc(c3)S(=O)(=O)Nc3nc(cc(-c4c(C)cccc4C)n3)OC[C@H]2CC(C)C)C[C@@]2(C[C@H](C(C)(C)O)C2)C1` (stereo in doubt) [Compound 412], under “Table 10”, the “Ent. B Max Activity (%)” value was “+++ (+++ is >60%)”. The EC50 under setting [1] was less than 1000 nM.

On to `Cc1cccc(C)c1-c1cc2nc(n1)NS(=O)(=O)c1cccc(c1)C(=O)N(C1CC3(CCNC(=O)C3)C1)[C@H](CC(C)C)CO2` (stereo partly shown) [Compound 200], for which, under “Table 10”, the “Ent. B Max Activity (%)” value was “++ (++ is 30-60%)”. The EC50 under setting [1] is less than 1000 nM.

Regarding `COC1CN([C@H]2C[C@@H](N3C(=O)c4cccc(c4)S(=O)(=O)Nc4nc(cc(-c5c(C)cccc5C)n4)OC[C@H]3CC(C)C)C2)C1` [Compound 65, (11R)-6-(2,6-dimethylphenyl)-11-isobutyl-12-[3-(3-methoxyazetidin-1-yl)cyclobutyl]-2,2-dioxo-9-oxa-2λ^6-thia-3,5,12,19-tetrazatricyclo[12.3.1.14,8]nonadeca-1(18),4(19),5,7,14,16-hexaen-13-one], for the setting “Table 9”, the “Ent. B Max Activity (%)” value is on record as “+++ (+++ is >60%)”. In addition, the EC50 (Table 9, read-out: Ent. B EC50) is less than 1000 nM.

On to `Cc1cccc(C)c1-c1cc2nc(n1)NS(=O)(=O)c1cccc(c1)C(=O)N(C1CC3(CC(C(N)=O)C3)C1)[C@H](CC(C)(C)C)CO2` (stereo partly shown) [Compound 232], for which the “Ent. B Max Activity (%)” value (Table 10) is “+++ (+++ is >60%)”. Besides, the EC50 under setting [1] was less than 1000 nM.

In the case of `Cc1cccc(C)c1-c1cc2nc(n1)NS(=O)(=O)c1cccc(c1)C(=O)N(C1CC(NC(=O)OC(C)C)C1)[C@H](CC(C)(C)C)CO2` (stereo in doubt) [Compound 450], the “Ent. B Max Activity (%)” value (Table 9) is “+++ (+++ is >60%)”. Besides, the EC50 (Table 9, read-out: Ent. B EC50) is less than 1000 nM.

For `Cc1cccc(C)c1-c1cc2nc(n1)NS(=O)(=O)c1cccc(c1)C(=O)N(C1CC3(CC3)C1)CC(C(C)C)O2` (stereo not shown) [Compound 468], the “Ent. B Max Activity (%)” value is “++ (++ is 30-60%)”. Also, where the note is “read-out: Ent. B EC50”, the EC50 is less than 1000 nM.

Turning to `Cc1cccc(C)c1-c1cc2nc(n1)NS(=O)(=O)c1cccc(c1)C(=O)N(C1CC3(C1)CN(C(C)C)C3)[C@H](CC(C)C)CO2` [Compound 103, (11R)-6-(2,6-Dimethylphenyl)-11-isobutyl-12-(2-isopropyl-2-azaspiro[3.3]heptan-6-yl)-2,2-dioxo-9-oxa-2λ^6-thia-3,5,12,19-tetrazatricyclo[12.3.1.14,8]nonadeca-1(18),4(19),5,7,14,16-hexaen-13-one], the “Ent. B Max Activity (%)” value is listed as “+++ (+++ is >60%)”. The 50% effective concentration (EC50) (read-out: Ent. B EC50) is less than 1000 nM.

In the case of `COC(=O)NC1CC2(C1)CC(N1C(=O)c3cccc(c3)S(=O)(=O)Nc3nc(cc(-c4c(C)cccc4C)n3)OC[C@H]1CC(C)(C)C)C2` (stereo partly drawn) [Compound 88, Methyl ((2S,4s,6S)-6-((R)-1^6-(2,6-dimethylphenyl)-7-neopentyl-3,3-dioxido-5-oxo-9-oxa-3-thia-2,6-diaza-1(2,4)-pyrimidina-4(1,3)-benzenacyclononaphane-6-yl)spiro[3.3]heptan-2-yl)carbamate], the “Ent. B Max Activity (%)” value (Table 9) is “+++ (+++ is >60%)”. Besides, the EC50 (Table 9, read-out: Ent. B EC50) is less than 1000 nM.

For `Cc1cccc(C)c1-c1cc2nc(n1)NS(=O)(=O)c1cccc(c1)C(=O)N(C1CC3(CC(NC(=O)OC(C)C)C3)C1)[C@H](CC(C)(C)C)CO2` (stereo partly drawn) [Compound 92, Isopropyl ((2S,4s,6S)-6-((R)-1^6-(2,6-dimethylphenyl)-7-neopentyl-3,3-dioxido-5-oxo-9-oxa-3-thia-2,6-diaza-1(2,4)-pyrimidina-4(1,3)-benzenacyclononaphane-6-yl)spiro[3.3]heptan-2-yl)carbamate], the “Ent. B Max Activity (%)” value (Table 9) is “+++ (+++ is >60%)”. Under “Table 9, read-out: Ent. B EC50”, the EC50 was less than 1000 nM.

On to `Cc1cccc(C)c1-c1cc2nc(n1)NS(=O)(=O)c1cccc(c1)C(=O)N([C@H]1C[C@@H](N3C[C@@H](C)CC3(C)C)C1)[C@H](CC(C)C)CO2` [Compound 359], for which, where the note is “Table 10”, the “Ent. B Max Activity (%)” value is listed as “++ (++ is 30-60%)”. Moreover, under setting [1], the EC50 was less than 1000 nM.

Take `COC(=O)N[C@H]1C[C@@H](N2C(=O)c3cccc(c3)S(=O)(=O)Nc3nc(cc(-c4c(C)cccc4C)n3)OC[C@H]2CC(C)(C)C)C1` (single isomer, unassigned) [Compound 168]: the “Ent. B Max Activity (%)” value (Table 9) is “+++ (+++ is >60%)”. In addition, the EC50 (Table 9, read-out: Ent. B EC50) is less than 1000 nM.

Turning to `Cc1cccc(C)c1-c1cc2nc(n1)NS(=O)(=O)c1cccc(c1)C(=O)N(c1cnn(C)c1)[C@H](CC(C)(C)C)CO2` [Compound 230], for the setting “Table 10”, the “Ent. B Max Activity (%)” value is reported as “+++ (+++ is >60%)”. The EC50 under setting [1] is less than 1000 nM.

As to `Cc1cccc(C)c1-c1cc2nc(n1)NS(=O)(=O)c1cccc(n1)C(=O)N(C1CC3(C1)CC(C(C)(C)O)C3)[C@H](CC(C)(C)C)CO2` (single isomer, unassigned) [Compound 161], the “Ent. B Max Activity (%)” value (Table 10) is recorded as “+++ (+++ is >60%)”. For the same compound, the EC50 under setting [1] is less than 1000 nM.

For the compound `Cc1cccc(C)c1-c1cc2nc(n1)NS(=O)(=O)c1cccc(c1)C(=O)N(C1CC3(C1)CN(C(=O)OC(C)C)C3)[C@H](CC(C)C)CO2` [Compound 102, Isopropyl 6-[(11R)-6-(2,6-dimethylphenyl)-11-isobutyl-2,2,13-trioxo-9-oxa-2λ^6-thia-3,5,12,19-tetrazatricyclo[12.3.1.14,8]nonadeca-1(18),4(19),5,7,14,16-hexaen-12-yl]-2-azaspiro[3.3]heptane-2-carboxylate], the “Ent. B Max Activity (%)” value is “+++ (+++ is >60%)”. The EC50 (read-out: Ent. B EC50) is less than 1000 nM.

As to `CCC(=O)N[C@H]1C[C@]2(C1)C[C@H](N1C(=O)c3cccc(c3)S(=O)(=O)Nc3nc(cc(-c4c(C)cccc4C)n3)OC[C@H]1CC1(C(F)(F)F)CC1)C2` (stereo partly shown) [Compound 249], the “Ent. B Max Activity (%)” value (Table 10) is given as “+++ (+++ is >60%)”. Besides, the EC50 under setting [1] was less than 1000 nM.

`Cc1cccc(C)c1-c1cc2nc(n1)NS(=O)(=O)c1cccc(c1)C(=O)N([C@H]1C[C@@H](N(C)CCCO)C1)[C@H](CC(C)C)CO2` [Compound 67, (11R)-6-(2,6-Dimethylphenyl)-12-[3-[3-hydroxypropyl(methyl)amino]cyclobutyl]-11-isobutyl-2,2-dioxo-9-oxa-2λ^6-thia-3,5,12,19-tetrazatricyclo[12.3.1.14,8]nonadeca-1(18),4(19),5,7,14,16-hexaen-13-one]: for the setting “Table 9”, the “Ent. B Max Activity (%)” value is reported as “+++ (+++ is >60%)”. The EC50 (Table 9, read-out: Ent. B EC50) is less than 1000 nM.

In the case of `COCCN1CCN([C@H]2C[C@@H](N3C(=O)c4cccc(c4)S(=O)(=O)Nc4nc(cc(-c5c(C)cccc5C)n4)OC[C@H]3CC(C)C)C2)CC1=O` [Compound 385], the “Ent. B Max Activity (%)” value (Table 9) is on record as “+++ (+++ is >60%)”. Further, the EC50 (Table 9, read-out: Ent. B EC50) is less than 1000 nM.

With `Cc1cccc(C)c1-c1cc2nc(n1)NS(=O)(=O)c1cccc(n1)C(=O)N(C1CC3(CC(C(=O)N(C)C)C3)C1)[C@H](CC(C)(C)C)CO2` (stereo partly shown) [Compound 414], the “Ent. B Max Activity (%)” value (Table 10) is on record as “+++ (+++ is >60%)”. The EC50 under setting [1] is less than 1000 nM.

On to `COC(=O)N[C@H]1CC2(C1)C[C@H](N1C(=O)c3cccc(c3)S(=O)(=O)Nc3nc(cc(-c4c(C)cccc4C)n3)OC[C@H]1CC1(C(F)(F)F)CC1)C2` (stereo partly shown) [Compound 274], for which the “Ent. B Max Activity (%)” value (Table 9) is “+++ (+++ is >60%)”. Further, the EC50 (Table 9, read-out: Ent. B EC50) was less than 1000 nM.

For the compound `Cc1cccc(C)c1-c1cc2nc(n1)NS(=O)(=O)c1cccc(c1)C(=O)N([C@H]1C[C@@H](OC(C)C)C1)[C@H](CC(C)C)CO2` (single isomer, unassigned) [Compound 46], the “Ent. B Max Activity (%)” value (Table 9) is reported as “+++ (+++ is >60%)”. Also, for the setting “Table 9, read-out: Ent. B EC50”, the EC50 was less than 1000 nM.

For `Cc1cccc(C)c1-c1cc2nc(n1)NS(=O)(=O)c1cccc(c1)C(=O)N(C1CC(NC(=O)OC(C)(C)C)C1)[C@H](CC(C)(C)C(F)(F)F)CO2` (single isomer, unassigned) [Compound 193], the “Ent. B Max Activity (%)” value (Table 9) is “+++ (+++ is >60%)”. For the same compound, the EC50 (Table 9, read-out: Ent. B EC50) was less than 1000 nM.

In the case of `Cc1cccc(C)c1-c1cc2nc(n1)NS(=O)(=O)c1cccc(c1)C(=O)N([C@H]1C[C@@H](N3C[C@@H](O)CC3=O)C1)[C@H](CC(C)C)CO2` (stereo in doubt) [Compound 370], the “Ent. B Max Activity (%)” value (Table 10) is listed as “++ (++ is 30-60%)”. Further, the EC50 under setting [1] was less than 1000 nM.

As to `COC(=O)N1CCC2(CC1)CC(N1C(=O)c3cccc(c3)S(=O)(=O)Nc3nc(cc(-c4c(C)cccc4C)n3)OC[C@H]1CC(C)(C)C)C2` [Compound 262], the “Ent. B Max Activity (%)” value (Table 9) is on record as “+++ (+++ is >60%)”. Also, the 50% effective concentration (EC50) (Table 9, read-out: Ent. B EC50) was less than 1000 nM.
